# Assays:
# cancer cells line A549 = experiment: in vitro cytotoxicity, MTT viability assay; type: cell-based; conditions: free EPT, concentration not given
# Experimental: The cellular toxicity of blank and EPT loaded scl-PHA nanoparticles as prepared in Example 2 were determined by using cancer cells line A549. The cells were cultured in Dulbecco's Modified Eagle's Medium (DMEM) containing 1% (v/v) Penicillin-Streptomycin (P/S, 10,000 U) antibiotic and 10% (v/v) Fetal Bovine Serum (FBS) and incubated for 24 h at 37° C. and 5% CO2. When cells grew to reach 95% confluence, they were detached from the cell culture flasks using trypsin-EDTA. The cell suspension was centrifuged at 900 rpm for 5 min and then resuspended in culture medium to get the final concentration of 1×10^5 cells/mL. About 200 μL of the cell suspensions were transferred to each well of a clear, flat bottom 96-well plate (Costar) and incubated for 24 h. On treatment day, medium was removed and fresh medium containing 4-fold serial dilutions i.e., 250.0 μg/mL (4 times), 62.5 μg/mL (8 times) and 1.6 μg/mL (12 times) of blank and EPT loaded scl-PHA nanoparticles was added. The toxicity of the nanoparticles was checked after 24, 48 and 72 h of treatment using 3-(4,5-dimethylthiazole-2-yl)-2,5-diphenyl tetrazolium (MTT) viability assay. About 5 mg of MTT was dissolved in 1 mL physiological buffer saline (PBS) solution, followed by 10 times dilution in culture medium. About 100 μL of MTT solution were added to each well after the removal of treatments and incubated for 4 h before the addition of 100 μl, of the solubilization solution (anhydrous isopropanol containing 0.1 N HCl and 10% Triton X-100). The plates were then incubated overnight and absorbance was taken at 570 nm on a microplate reader (BMG FLUOstar OPTIMA) and subtracted from the background signals at 690 nm. The cell % inhibition was calculated relative to wells containing only cell cultures without nanoparticles by using the following formula: […]
# [1] = neutral pH; cited from earlier work
smiles,measurement,setting,value
"Cc1c2ccncc2c(C)c2c1[nH]c1ccccc12 [EPT, 5,11-dimethyl-6H-pyrido[4,3-b]carbazole]",Relative % inhibition for A549 cells,cancer cells line A549; 24 h,10.02 ± 0.86%
same,Relative % inhibition for A549 cells,cancer cells line A549; 48 h,25.40 ± 1.35%
same,Relative % inhibition for A549 cells,cancer cells line A549; 72 h,32.38%
same,water solubility,[1],approximately 0.62 mM

# Source: patent US20150118293A1, “NOVEL DELIVERY SYSTEM FOR ANTICANCER DRUG BASED ON SHORT-CHAIN- LENGTH POLYHYDROXYALKANOATE NANOPARTICLES” (priority 2013, published 2015)
